From PubChem BioAssay (NCI)
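Five concentrations, 48 hours, 96-well plates. Definition used: TGI = concentration required for complete inhibition of growth.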

Key:
Assay in all cases: NCI tumour cell line growth inhibition, 48 h
DMS 273 small cell lung = system: DMS 273 small cell lung
K-562 leukemia = system: K-562 leukemia
SNB-75 CNS = system: SNB-75 CNS
CCRF-CEM leukemia = system: CCRF-CEM leukemia
RPMI-8226 leukemia = system: RPMI-8226 leukemia
MALME-3M melanoma = system: MALME-3M melanoma
HT29 colon = system: HT29 colon
HOP-62 NSCLC = system: HOP-62 NSCLC
SK-OV-3 ovarian = system: SK-OV-3 ovarian
U251 CNS = system: U251 CNS
NCI-H522 lung = system: NCI-H522 lung
M19-MEL melanoma = system: M19-MEL melanoma
HCT-15 colon = system: HCT-15 colon
SW-620 colon = system: SW-620 colon
EKVX NSCLC = system: EKVX NSCLC
OVCAR-3 ovarian = system: OVCAR-3 ovarian
KM12 colon = system: KM12 colon
SNB-19 CNS = system: SNB-19 CNS
NCI/ADR-RES ovarian = system: NCI/ADR-RES ovarian
RXF 393 renal = system: RXF 393 renal
OVCAR-5 ovarian = system: OVCAR-5 ovarian
SK-MEL-28 melanoma = system: SK-MEL-28 melanoma
UO-31 renal = system: UO-31 renal
SNB-78 CNS = system: SNB-78 CNS
DLD-1 colon = system: DLD-1 colon
P388 leukemia = system: P388 leukemia
MCF7 breast = system: MCF7 breast
HCC-2998 colon = system: HCC-2998 colon
SF-295 CNS = system: SF-295 CNS
HCT-116 colon = system: HCT-116 colon
SN12K1 renal = system: SN12K1 renal
OVCAR-8 ovarian = system: OVCAR-8 ovarian
NCI-H226 lung = system: NCI-H226 lung
P388/ADR leukemia = system: P388/ADR leukemia
DMS 114 small cell lung = system: DMS 114 small cell lung
SN12C renal = system: SN12C renal
OVCAR-4 ovarian = system: OVCAR-4 ovarian
NCI-H460 lung = system: NCI-H460 lung
A549 NSCLC = system: A549 NSCLC
HOP-92 NSCLC = system: HOP-92 NSCLC
UACC-62 melanoma = system: UACC-62 melanoma
LOX IMVI melanoma = system: LOX IMVI melanoma
MOLT-4 leukemia = system: MOLT-4 leukemia
SF-268 CNS = system: SF-268 CNS
KM20L2 colon = system: KM20L2 colon
COLO 205 colon = system: COLO 205 colon
A498 renal = system: A498 renal
SF-539 CNS = system: SF-539 CNS
IGROV1 ovarian = system: IGROV1 ovarian
UACC-257 melanoma = system: UACC-257 melanoma
HL-60(TB) leukemia = system: HL-60(TB) leukemia
NCI-H23 lung = system: NCI-H23 lung
SK-MEL-2 melanoma = system: SK-MEL-2 melanoma
SK-MEL-5 melanoma = system: SK-MEL-5 melanoma
XF 498 CNS = system: XF 498 CNS
HOP-18 NSCLC = system: HOP-18 NSCLC
CAKI-1 renal = system: CAKI-1 renal

CCCCCCCCC1=CCC(CN(C)C)C1=O (stereo unspecified)
TGI (DMS 273 small cell lung): 35.3 µM | TGI (K-562 leukemia): 59 µM | TGI (SNB-75 CNS): 32.1 µM | TGI (CCRF-CEM leukemia): > 60.1 µM | TGI (RPMI-8226 leukemia): 4.2 µM | TGI (MALME-3M melanoma): 32.3 µM | TGI (HT29 colon): 35.4 µM | TGI (HOP-62 NSCLC): > 31.6 µM | TGI (SK-OV-3 ovarian): > 100 µM | TGI (U251 CNS): 32.8 µM | TGI (NCI-H522 lung): 31.3 µM | TGI (M19-MEL melanoma): 32.3 µM | TGI (HCT-15 colon): 33.7 µM | TGI (SW-620 colon): 36.6 µM | TGI (EKVX NSCLC): 48.1 µM | TGI (OVCAR-3 ovarian): 34.3 µM | TGI (KM12 colon): 38 µM | TGI (SNB-19 CNS): > 79 µM | TGI (NCI/ADR-RES ovarian): 41.7 µM | TGI (RXF 393 renal): 36 µM | TGI (OVCAR-5 ovarian): > 72.4 µM | TGI (SK-MEL-28 melanoma): 38.2 µM | TGI (UO-31 renal): 39.2 µM | TGI (SNB-78 CNS): 46.4 µM | TGI (DLD-1 colon): 35 µM | TGI (P388 leukemia): 46.5 µM | TGI (MCF7 breast): 13.6 µM | TGI (HCC-2998 colon): 27.7 µM | TGI (SF-295 CNS): > 60.7 µM | TGI (HCT-116 colon): 36.5 µM | TGI (SN12K1 renal): 32.1 µM | TGI (OVCAR-8 ovarian): 34.9 µM | TGI (NCI-H226 lung): > 76.3 µM | TGI (P388/ADR leukemia): 15 µM | TGI (DMS 114 small cell lung): 34.4 µM | TGI (SN12C renal): 32.4 µM | TGI (OVCAR-4 ovarian): 50.8 µM | TGI (NCI-H460 lung): 26.1 µM | TGI (A549 NSCLC): > 100 µM | TGI (HOP-92 NSCLC): 31 µM | TGI (UACC-62 melanoma): 33.2 µM | TGI (LOX IMVI melanoma): 33.7 µM | TGI (MOLT-4 leukemia): 48.2 µM | TGI (SF-268 CNS): 34.7 µM | TGI (KM20L2 colon): 47.4 µM | TGI (COLO 205 colon): 33.9 µM | TGI (A498 renal): > 58.4 µM | TGI (SF-539 CNS): 36.9 µM | TGI (IGROV1 ovarian): 35.9 µM | TGI (UACC-257 melanoma): 45.7 µM | TGI (HL-60(TB) leukemia): 33.8 µM | TGI (NCI-H23 lung): 39.2 µM | TGI (SK-MEL-2 melanoma): 46.1 µM | TGI (SK-MEL-5 melanoma): 41.4 µM

CCC(C(C)N1CC(=O)NC(=O)C1)N1CC(=O)NC(=O)C1 (stereo unspecified)
TGI (DMS 273 small cell lung): > 100 µM | TGI (K-562 leukemia): > 100 µM | TGI (SNB-75 CNS): > 100 µM | TGI (CCRF-CEM leukemia): > 100 µM | TGI (RPMI-8226 leukemia): > 100 µM | TGI (MALME-3M melanoma): > 100 µM | TGI (XF 498 CNS): > 100 µM | TGI (HT29 colon): > 100 µM | TGI (HOP-62 NSCLC): > 100 µM | TGI (SK-OV-3 ovarian): > 100 µM | TGI (U251 CNS): > 100 µM | TGI (NCI-H522 lung): > 63.5 µM | TGI (HOP-18 NSCLC): > 100 µM | TGI (M19-MEL melanoma): > 100 µM | TGI (HCT-15 colon): > 100 µM | TGI (SW-620 colon): > 100 µM | TGI (EKVX NSCLC): > 30 µM | TGI (OVCAR-3 ovarian): > 100 µM | TGI (KM12 colon): > 100 µM | TGI (SNB-19 CNS): > 100 µM | TGI (NCI/ADR-RES ovarian): > 100 µM | TGI (RXF 393 renal): > 100 µM | TGI (OVCAR-5 ovarian): > 100 µM | TGI (SK-MEL-28 melanoma): > 100 µM | TGI (UO-31 renal): > 100 µM | TGI (SNB-78 CNS): > 100 µM | TGI (DLD-1 colon): > 100 µM | TGI (P388 leukemia): > 75.9 µM | TGI (MCF7 breast): > 100 µM | TGI (HCC-2998 colon): > 100 µM | TGI (SF-295 CNS): > 100 µM | TGI (HCT-116 colon): > 100 µM | TGI (SN12K1 renal): > 100 µM | TGI (OVCAR-8 ovarian): > 100 µM | TGI (CAKI-1 renal): > 100 µM | TGI (NCI-H226 lung): > 100 µM | TGI (P388/ADR leukemia): > 100 µM | TGI (DMS 114 small cell lung): > 95 µM | TGI (SN12C renal): > 100 µM | TGI (OVCAR-4 ovarian): > 100 µM | TGI (NCI-H460 lung): > 100 µM | TGI (A549 NSCLC): > 100 µM | TGI (HOP-92 NSCLC): > 100 µM | TGI (UACC-62 melanoma): > 100 µM | TGI (LOX IMVI melanoma): > 100 µM | TGI (MOLT-4 leukemia): > 100 µM | TGI (SF-268 CNS): > 100 µM | TGI (KM20L2 colon): > 100 µM | TGI (COLO 205 colon): > 27.9 µM | TGI (A498 renal): > 100 µM | TGI (SF-539 CNS): > 100 µM | TGI (IGROV1 ovarian): > 100 µM | TGI (UACC-257 melanoma): > 100 µM | TGI (HL-60(TB) leukemia): > 100 µM | TGI (NCI-H23 lung): > 100 µM | TGI (SK-MEL-2 melanoma): > 100 µM | TGI (SK-MEL-5 melanoma): > 100 µM
